Data taken from publication PMC3288053 (PLoS ONE, 2012).

Columns and labels:
PTP1B (D48A) = target: T1, PTP1B (D48A) (Homo sapiens, UniProt P18031, D48A); test: PTP enzyme inhibition assay, D48A mutant; type: biochemical
T1 construct: pGEX4T-1-PTP1B1–321; GST (N); made in house; host or cells: E. coli (BL21 (DE3) stated for the wild-type plasmid)
Method: The plasmid pGEX4T1-PTP1B (D48A) is generated by site-directed mutagenesis with pGEX4T1-PTP1B (WT) as template. The primer pairs are sense: 5′-[…]-3′ and antisense: 5′-[…]-3′.
The enzymatic activities of the recombinant PTPs are measured at 25°C using pNPP as substrate. The initial velocities of enzymatic reactions are determined by continuously measuring the absorbance at 405 nm every 15 s using a microplate spectrophotometer (Bio-Rad). […] To determine the inhibition type, each concentration of Rut (0, 50 and 75 µM) is incubated with PTP1B (0.3 µM) in reaction buffer (50 mM HEPES, pH7.0, 1 mM EDTA, and 100 mM NaCl) for 10 min and the reactions are initiated by different concentrations of pNPP (0.5–10 mM). The inhibition type is determined using double-reciprocal plots. In determination of the selectivity of Rut against PTPs, the result is referred as no inhibition when 100 µM Rut inhibits no enzyme activity. The same reaction systems are designed for all PTPs including PTP1B.

[1] = target: T2, PPARγ-LBD/SRC1_613–773 interaction (Homo sapiens, UniProt P37231); test: SPR SRC1 recruitment assay; type: binding; details: 1 µM PPARγ-LBD incubated with compound 1 hour
T2 construct: pET15b-PPARγ-LBD202–477; His-tag (N); made in house; host or cells: E. coli BL21 (DE3)
Method: (§1) Binding affinities of Rut towards proteins are analyzed using SPR technology based Biacore 3000 instrument (GE Healthcare). In the assay, proteins are immobilized to CM5 chips using a standard amine-coupling procedure (Biacore manual). The proteins to be covalently bound to the chips are diluted in 10 mM sodium acetate buffer (pH4.5) to a final concentration of 0.10 mg/ml. Before experiments, baseline is equilibrated with a continuous flow of running buffer (10 mM HEPES, 150 mM NaCl, 3 mM EDTA, and 0.005% (v/v) surfactant P20, pH7.4) for 2 hours. Subsequently, Rut with a gradient of concentrations is injected to the channels at a flow rate of 20 µL/min for 60 seconds, followed by disassociation for 120 seconds. The 1∶1 Langmuir binding fitting model in BIAevaluation software version 3.1 (Biacore) is used to determine the equilibrium dissociation constants (K Ds) of compounds. […] Different concentrations of PPARγ-LBD or RXRα-LBD are injected to the channel at a flow rate of 20 µL/min for 60 s, followed by disassociation for 120 s.

[2] = target: T3, RXRα-LBD/SRC1_613–773 interaction (Homo sapiens, UniProt P19793); test: SPR SRC1 recruitment assay; type: binding; details: 1 µM RXRα-LBD incubated with compound 1 hour
T3 construct: His-tag (N); made in house; host or cells: E. coli BL21 (DE3)
Method: as §1

RXRα:RXRα = target: T4, RXRα:RXRα (Homo sapiens, UniProt P19793); test: Transient transfection luciferase assay in HEK293 cells (RXRE); type: cell-based; details: HEK293, 24 h
T4 construct: expressed in transfected cells; host or cells: HEK293
Method: (§2) HEK293 cells are transiently transfected by Lipo2000 respectively with RXRα, PPARγ, FXR, and LXRα plasmids plus pGL3-RXRE luciferase vector and renilla luciferase vector for 5 hours. Cells are then incubated with indicated concentrations of compounds for another 24 h and finally lysed. Luciferase activities are measured using Dual Luciferase Assay System kit. Rut dose-dependently activates (a) RXRα:RXRα and (b) PPARγ:RXRα activities. Rut has no effects on (c) FXR: RXRα and (d) LXRα:RXRα activities. Data are presented as means ± s.e.m (*P<0.05, **P<0.01) from three independent experiments.
(§3) HEK293 cells are transfected with luciferase reporter plus Renilla luciferase vector and other plasmids if needed for 5 hours, and cells are then incubated with indicated concentrations of compounds for another 24 h. Finally cells are lysed and luciferase activities are measured using Dual Luciferase Assay System kit. The results are presented as the fold activation relative to untreated cells after normalization with Renilla luciferase values. Each experiment is repeated at least twice, with each sample analyzed in triplicates.

LXRα:RXRα = target: T5, LXRα:RXRα (Homo sapiens, UniProt P19793+Q13133); test: Transient transfection luciferase assay in HEK293 cells (LXRE); type: cell-based; details: HEK293, 24 h
T5 construct: expressed in transfected cells; host or cells: HEK293
Method: as §2, §3

C57/BL6 DIO male mice = test: Diet-induced obese (DIO) mice model: fasting plasma glucose, OGTT, ITT, tolerability; type: in vivo
Method: All animals receive humane care, and the experimental procedures are performed according to the institutional ethical guidelines on animal care. C57/BL6 male mice are obtained from Shanghai SLAC Laboratory Animal Co. Ltd, and maintained under the temperature controlled at 25°C with a 12 h light-dark cycle. Eight-week-old male mice are fed regular chow or high fat diet (HFD, D12492i, from Research Diets Inc.) for 12 weeks. The DIO mice and normal lean mice are grouped randomly, and each group contains 7 mice. […] Individual body weight and fasting plasma glucose are measured weekly. Averaged daily food intake is measured twice a week. At the termination of the study, mice are dissected, and the weight of tissues (liver, kidney, spleen, heart, perirenal fat, and epididymis fat) is determined.
Male mice treated with compounds for 8 weeks are used for oral glucose tolerance test. After 6 h fasting, plasma glucose levels are measured and glucose (2 g/kg) is loaded. Blood samples are taken from the tail vein at different time points (0, 30, 90, and 120 min). In insulin tolerance tests, after 6 h fasting, plasma glucose levels are measured and insulin (1 U/kg) is administered by IP injection. Blood samples are taken at indicated time points (0, 15, 30, 45, 60, 90, and 120 min). Blood glucose levels are measured by ACCU-CHEK Active blood sugar testmeter (Roche). Statistical evaluation is performed via two-way ANOVA. Significant difference at P<0.05: *, P<0.01: **.

T4 sequence (P19793 whole entry): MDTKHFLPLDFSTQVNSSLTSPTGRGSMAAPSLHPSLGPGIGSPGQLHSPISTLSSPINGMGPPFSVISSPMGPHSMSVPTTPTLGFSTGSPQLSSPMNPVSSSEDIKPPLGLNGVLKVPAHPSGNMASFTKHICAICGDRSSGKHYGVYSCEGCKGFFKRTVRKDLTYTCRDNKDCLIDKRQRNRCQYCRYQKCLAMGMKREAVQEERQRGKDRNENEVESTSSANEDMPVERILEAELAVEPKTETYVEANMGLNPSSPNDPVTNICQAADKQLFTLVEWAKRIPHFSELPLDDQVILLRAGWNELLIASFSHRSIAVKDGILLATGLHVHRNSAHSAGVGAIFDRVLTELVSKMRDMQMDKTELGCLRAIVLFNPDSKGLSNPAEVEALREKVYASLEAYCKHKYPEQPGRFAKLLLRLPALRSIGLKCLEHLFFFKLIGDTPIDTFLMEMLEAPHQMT
T1 sequence (P18031 1-321 D48A): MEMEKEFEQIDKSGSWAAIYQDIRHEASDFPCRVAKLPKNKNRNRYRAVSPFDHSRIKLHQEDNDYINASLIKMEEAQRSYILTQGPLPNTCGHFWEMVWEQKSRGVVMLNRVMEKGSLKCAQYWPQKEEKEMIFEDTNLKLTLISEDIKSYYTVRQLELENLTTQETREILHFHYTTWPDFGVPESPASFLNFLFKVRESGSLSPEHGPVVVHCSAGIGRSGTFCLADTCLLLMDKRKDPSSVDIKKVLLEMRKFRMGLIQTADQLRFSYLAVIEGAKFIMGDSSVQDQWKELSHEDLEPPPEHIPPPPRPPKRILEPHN
T5 sequence (Q13133 whole entry): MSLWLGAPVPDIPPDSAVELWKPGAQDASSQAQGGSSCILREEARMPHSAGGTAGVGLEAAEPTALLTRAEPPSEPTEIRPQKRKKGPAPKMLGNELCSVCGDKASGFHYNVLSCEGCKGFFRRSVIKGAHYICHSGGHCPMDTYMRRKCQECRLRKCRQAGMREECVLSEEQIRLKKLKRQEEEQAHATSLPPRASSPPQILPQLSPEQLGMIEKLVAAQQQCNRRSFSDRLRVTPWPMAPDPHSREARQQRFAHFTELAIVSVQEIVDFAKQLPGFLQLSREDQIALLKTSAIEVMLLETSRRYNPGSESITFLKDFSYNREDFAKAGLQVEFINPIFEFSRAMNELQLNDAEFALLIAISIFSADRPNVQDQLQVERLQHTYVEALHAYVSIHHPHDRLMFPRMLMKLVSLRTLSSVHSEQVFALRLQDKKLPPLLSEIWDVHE
T5 sequence (P19793 whole entry): as the sequence (P19793 whole entry) above
T3 sequence (P19793 227-458 limits assumed): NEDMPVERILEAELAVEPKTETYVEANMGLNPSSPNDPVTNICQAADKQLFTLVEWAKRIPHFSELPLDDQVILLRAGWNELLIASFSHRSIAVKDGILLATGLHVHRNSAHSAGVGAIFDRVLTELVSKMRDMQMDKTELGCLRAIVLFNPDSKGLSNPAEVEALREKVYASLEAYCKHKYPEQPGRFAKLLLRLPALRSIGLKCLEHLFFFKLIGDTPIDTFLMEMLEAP
T3 sequence (Q15788 613-773 partner limits assumed): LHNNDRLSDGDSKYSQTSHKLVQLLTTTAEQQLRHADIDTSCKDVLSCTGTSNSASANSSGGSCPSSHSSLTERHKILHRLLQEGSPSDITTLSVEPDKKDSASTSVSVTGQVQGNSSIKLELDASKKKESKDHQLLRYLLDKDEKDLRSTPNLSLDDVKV
T2 sequence (P37231 230-505): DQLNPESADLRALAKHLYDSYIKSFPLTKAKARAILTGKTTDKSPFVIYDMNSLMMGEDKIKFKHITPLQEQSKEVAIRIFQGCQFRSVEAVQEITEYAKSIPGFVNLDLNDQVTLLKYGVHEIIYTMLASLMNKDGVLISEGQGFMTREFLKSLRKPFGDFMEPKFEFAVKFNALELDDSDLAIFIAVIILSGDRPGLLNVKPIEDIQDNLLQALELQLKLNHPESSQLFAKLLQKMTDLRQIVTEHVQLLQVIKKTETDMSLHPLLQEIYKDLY
T2 sequence (Q15788 613-773 partner limits assumed): as the sequence (Q15788 613-773 partner limits assumed) above

C=CC(C)(C)c1cc2cc3c(cc2oc1=O)O[C@H](C(C)(C)OC(C)=O)C3 [(+)-Rutamarin]
IC50 (PTP1B (D48A)): 14.8 µM
effect on interaction between PPARγ-LBD and SRC1 [1]: cannot enhance
effect on interaction between RXRα-LBD and SRC1 [2]: efficiently enhances
activity of RXR-response element (RXRE) (RXRα:RXRα): dose-dependently enhance
activity of LXR-response element (LXRE) (LXRα:RXRα): without influencing
fasting plasma glucose level (C57/BL6 DIO male mice; DIO mice, Rut 2 mg/kg IP, 2 weeks): efficiently improve
fasting plasma glucose vs control obese group (C57/BL6 DIO male mice; DIO mice, Rut 10 mg/kg IP daily, 8 weeks): significantly lower
insulin tolerance test, glucose elimination vs vehicle (C57/BL6 DIO male mice; DIO mice, Rut 10 mg/kg, insulin 1 U/kg IP): eliminate glucose at a faster rate
plasma glucose after glucose challenge (glucose tolerance test) vs vehicle (C57/BL6 DIO male mice; DIO mice, Rut 10 mg/kg, oral glucose 2 g/kg): much lower
food consumption vs vehicle-treated mice (C57/BL6 DIO male mice; Rut 10 mg/kg IP): not significantly different
body weights (C57/BL6 DIO male mice; Rut 10 mg/kg IP, same course in vehicle-treated mice): slightly decrease in the first four weeks
insulin tolerance test vs vehicle (C57/BL6 DIO male mice; lean mice, Rut 10 mg/kg): no obvious difference
fasting plasma glucose vs vehicle (C57/BL6 DIO male mice; lean mice, Rut 10 mg/kg IP daily, 8 weeks): no obvious difference
